Measurements as given in ChEMBL document CHEMBL3885861, “Open TG-GATES”.

Species on record: Rattus norvegicus
Experiment: Open TG-GATES - Regimen: Single
Type: toxicity, organism-based, Sprague-Dawley
Set-up: regimen Single, gender Male, age 6 weeks
Conditions: in vivo, po, 500 mg/kg, route gavage, dose level High; for APTT / Bas / Eos / Fbg / Hb / Ht / Lym / MCH / MCHC / MCV / Mono / Neu / PT / Plat / RBC / Ret / WBC: tissue Blood; for KIDNEY_L / KIDNEY_R / KIDNEY_TOTAL: tissue Kidney; for LIVER: tissue Liver; for A/G / ALP / ALT / AST / BUN / CRE / Ca / Cl / DBIL / GLC / IP / K / LDH / Na / PL / RALB / TBIL / TC / TG / TP / gamma-GTP: tissue Plasma

CN1C(=O)CCS(=O)(=O)C1c1ccc(Cl)cc1 (configuration not stated) [CHLORMEZANONE]
TERMINAL_BW (3 h): 225.7 g | APTT (3 h): 17.2 s | Bas (3 h): 0% | Eos (3 h): 1% | Fbg (3 h): 308.4 mg/dL | Hb (3 h): 13.4 g/dL | Ht (3 h): 40.2% | Lym (3 h): 72.8% | MCH (3 h): 21.9 pg | MCHC (3 h): 33.4% | MCV (3 h): 65.4 fL | Mono (3 h): 3.8% | Neu (3 h): 21.8% | PT (3 h): 13.2 s | Plat (3 h): 113.8 x10_4/uL | RBC (3 h): 614.4 x10_4/ul | Ret (3 h): 8.6% | WBC (3 h): 42.6 x10_2/uL | KIDNEY_L (3 h): 1 g | KIDNEY_R (3 h): 1 g | KIDNEY_TOTAL (3 h): 2 g | LIVER (3 h): 9.8 g | A/G (3 h): 0.9 | ALP (3 h): 1556.6 IU/L | ALT (3 h): 41.2 IU/L | AST (3 h): 63.6 IU/L | BUN (3 h): 9.6 mg/dL | CRE (3 h): 0.1 mg/dL | Ca (3 h): 10.8 mg/dL | Cl (3 h): 102 meq/L | DBIL (3 h): 0.012 mg/dL | GLC (3 h): 212.4 mg/dL | IP (3 h): 10.3 mg/dL | K (3 h): 3.9 meq/L | LDH (3 h): 54.2 IU/L | Na (3 h): 140.8 meq/L | PL (3 h): 145 mg/dL | RALB (3 h): 2.5 g/dL | TBIL (3 h): 0.038 mg/dL | TC (3 h): 76.4 mg/dL | TG (3 h): 63.6 mg/dL | TP (3 h): 5.3 g/dL | gamma-GTP (3 h): 1 IU/L | TERMINAL_BW (6 h): 226.3 g | APTT (6 h): 16.7 s | Bas (6 h): 0% | Eos (6 h): 1% | Fbg (6 h): 340.6 mg/dL | Hb (6 h): 13.2 g/dL | Ht (6 h): 39.2% | Lym (6 h): 72.6% | MCH (6 h): 21.2 pg | MCHC (6 h): 33.8% | MCV (6 h): 62.7 fL | Mono (6 h): 2.6% | Neu (6 h): 23.4% | PT (6 h): 13.6 s | Plat (6 h): 111.4 x10_4/uL | RBC (6 h): 625.4 x10_4/ul | Ret (6 h): 8.1% | WBC (6 h): 28.5 x10_2/uL | KIDNEY_L (6 h): 0.9 g | KIDNEY_R (6 h): 0.9 g | KIDNEY_TOTAL (6 h): 1.9 g | LIVER (6 h): 9.9 g | A/G (6 h): 0.9 | ALP (6 h): 1317.4 IU/L | ALT (6 h): 44 IU/L | AST (6 h): 66.8 IU/L | BUN (6 h): 8 mg/dL | CRE (6 h): 0.1 mg/dL | Ca (6 h): 10.8 mg/dL | Cl (6 h): 101.2 meq/L | DBIL (6 h): 0.006 mg/dL | GLC (6 h): 218.4 mg/dL | IP (6 h): 10.6 mg/dL | K (6 h): 3.6 meq/L | LDH (6 h): 56.4 IU/L | Na (6 h): 139.6 meq/L | PL (6 h): 160 mg/dL | RALB (6 h): 2.5 g/dL | TBIL (6 h): 0.03 mg/dL | TC (6 h): 93.2 mg/dL | TG (6 h): 39.6 mg/dL | TP (6 h): 5.4 g/dL | gamma-GTP (6 h): 1 IU/L | TERMINAL_BW (9 h): 229 g | APTT (9 h): 16.4 s | Bas (9 h): 0% | Eos (9 h): 0.6% | Fbg (9 h): 317.8 mg/dL | Hb (9 h): 13.4 g/dL | Ht (9 h): 39.2% | Lym (9 h): 68.8% | MCH (9 h): 21.9 pg | MCHC (9 h): 34.2% | MCV (9 h): 64 fL | Mono (9 h): 2.8% | Neu (9 h): 27.6% | PT (9 h): 13.6 s | Plat (9 h): 127.7 x10_4/uL | RBC (9 h): 613 x10_4/ul | Ret (9 h): 8.1% | WBC (9 h): 40.7 x10_2/uL | KIDNEY_L (9 h): 1 g | KIDNEY_R (9 h): 1 g | KIDNEY_TOTAL (9 h): 1.9 g | LIVER (9 h): 10.1 g | A/G (9 h): 0.9 | ALP (9 h): 1555.8 IU/L | ALT (9 h): 39.8 IU/L | AST (9 h): 66 IU/L | BUN (9 h): 10 mg/dL | CRE (9 h): 0.1 mg/dL | Ca (9 h): 11 mg/dL | Cl (9 h): 100.4 meq/L | DBIL (9 h): 0.014 mg/dL | GLC (9 h): 255.4 mg/dL | IP (9 h): 10.3 mg/dL | K (9 h): 3.8 meq/L | LDH (9 h): 66.4 IU/L | Na (9 h): 139 meq/L | PL (9 h): 165.8 mg/dL | RALB (9 h): 2.6 g/dL | TBIL (9 h): 0.034 mg/dL | TC (9 h): 90.6 mg/dL | TG (9 h): 89.8 mg/dL | TP (9 h): 5.5 g/dL | gamma-GTP (9 h): 1.2 IU/L | TERMINAL_BW (24 h): 214.2 g | APTT (24 h): 21.3 s | Bas (24 h): 0% | Eos (24 h): 0.6% | Fbg (24 h): 258.6 mg/dL | Hb (24 h): 14.2 g/dL | Ht (24 h): 40.4% | Lym (24 h): 73.4% | MCH (24 h): 21.7 pg | MCHC (24 h): 35.2% | MCV (24 h): 61.9 fL | Mono (24 h): 4% | Neu (24 h): 21.8% | PT (24 h): 14.3 s | Plat (24 h): 121 x10_4/uL | RBC (24 h): 653.6 x10_4/ul | Ret (24 h): 7.3% | WBC (24 h): 73.2 x10_2/uL | KIDNEY_L (24 h): 0.9 g | KIDNEY_R (24 h): 0.9 g | KIDNEY_TOTAL (24 h): 1.9 g | LIVER (24 h): 9.7 g | A/G (24 h): 0.8 | ALP (24 h): 1746 IU/L | ALT (24 h): 46.2 IU/L | AST (24 h): 89.6 IU/L | BUN (24 h): 14.2 mg/dL | CRE (24 h): 0.2 mg/dL | Ca (24 h): 11.2 mg/dL | Cl (24 h): 104.6 meq/L | DBIL (24 h): 0.048 mg/dL | GLC (24 h): 193.2 mg/dL | IP (24 h): 8 mg/dL | K (24 h): 3.9 meq/L | LDH (24 h): 113 IU/L | Na (24 h): 142 meq/L | PL (24 h): 146.2 mg/dL | RALB (24 h): 2.6 g/dL | TBIL (24 h): 0.058 mg/dL | TC (24 h): 69.6 mg/dL | TG (24 h): 239.2 mg/dL | TP (24 h): 5.8 g/dL | gamma-GTP (24 h): 1 IU/L
